Source: patent US5262521A (SRI International, priority 1991, dated 1993)
Read-outs that look alike come from different tables or passages of the source. Values belong to the molecule of their own block, whether it stands above or below them. *1 amine or outer side, *2 acyl side, *3 side chain or, on linkers, in order; H or OH if unused. Where a SMILES comes first, the peptide text is derived from it. [ ]: non-standard residue; d: D form. The star is where a group is joined. Sta = CC(C)C[C@H](N)[C@@H](O)CC(=O)O; Isovaleryl = CC(C)CC(=O)*; CO = O=C([*:1])[*:2]

Tested on: atrial peptide-degrading enzyme (ADE)
Assay: Inhibition of ADE activity (AcAPI production from 50 μM AcAPII, HPLC)
Format: biochemical, bovine
Protocol: The concentration of enzyme and AcAPII were chosen so that approximately 80% of the AcAPII was degraded in the absence of inhibitor. The production of AcAPI was determined by integration of the AcI peak, and percent inhibition by the inhibitors was calculated.
(e.) Enzyme Inhibitor Testing: To further characterize ADE, the extent of inhibition by several known peptidase inhibitors was determined.

[1] = inhibitor 0.1 mM, 50 μM AcAPII, 1 hour, 37° C.
[2] = inhibitor 1 mM, 50 μM AcAPII, 1 hour, 37° C.
[3] = inhibitor 5 mM, 50 μM AcAPII, 1 hour, 37° C.

Structure (SMILES): CC(C)C[C@H](NC(=O)[C@@H](N)CO)C(=O)N[C@@H](CCCNC(=N)N)C(=O)N[C@@H](CCCNC(=N)N)C(=O)N[C@@H](CO)C(=O)N[C@@H](CO)C(=O)N[C@H](C)C(=O)NCC(=O)N[C@H](C)C(=O)N[C@@H](CC(N)=O)C(=O)N[C@@H](CO)C(=O)N[C@H](Cc1ccccc1)C(=O)N[C@@H](CCCNC(=N)N)C(=O)N[C@@H](Cc1ccc(O)cc1)C(N)=O [(II), Ser-Leu-Arg-Arg-Ser-Ser-DAla-Gly-DAla-Asn-Ser-DPhe-Arg-Tyr-NH2] (H-SLRRSS[dA]G[dA]NS[dF]RY-NH2)
% Inhibition At 0.1 mM (Table 10): 28%

Structure (SMILES): CC(C)C[C@H](NC(=O)[C@@H](N)CO)C(=O)N[C@@H](CCCNC(=N)N)C(=O)N[C@@H](CCCNC(=N)N)C(=O)N[C@@H](CO)C(=O)N[C@@H](CO)C(=O)N[C@H](C)C(=O)NCC(=O)N[C@H](C)C(=O)N[C@@H](CC(N)=O)C(=O)N[C@@H](CS)C(=O)N[C@H](Cc1ccccc1)C(=O)N[C@@H](CCCNC(=N)N)C(N)=O [(VI), Ser-Leu-Arg-Arg-Ser-Ser-DAla-Gly-DAla-Asn-Cys-DPhe-Arg-NH2] (H-SLRRSS[dA]G[dA]NC[dF]R-NH2)
% Inhibition At 0.1 mM (Table 10): 74%

Structure (SMILES): CC(C)[C@H](NC(=O)[C@H](CCCNC(=N)N)NC(=O)N[C@@H](Cc1ccccc1)C(=O)O)C(=O)N[C@H](C=O)CCCNC(=N)N [Antipain] ({Phe-CO}-Arg-Val-Arg-aldehyde)
Percent Inhibition of ADE [1]: 0%

Structure (SMILES): CC(C)C[C@H](NC(=O)[C@@H](NC(=O)N[C@@H](Cc1ccccc1)C(=O)O)[C@@H]1CCN=C(N)N1)C(=O)N[C@H](C=O)Cc1ccccc1 [Chymostatin]
Percent Inhibition of ADE [1]: 8%

Structure (SMILES): O=C(O)CN(CCN(CC(=O)O)CC(=O)O)CC(=O)O [EDTA, Ethylenediamine tetraacetic acid]
ADE activity after dialysis of the enzyme (enzyme dialyzed against 1 mM EDTA): totally abolished
Percent Inhibition of ADE [3]: 20%

Structure (SMILES): O=S(=O)(O)c1cc[c]([Hg][OH])cc1 [Hydroxymercuriphenyl sulfonic acid]
Percent Inhibition of ADE [2]: 100%

Structure (SMILES): NC(=O)CI [Iodoacetamide]
Percent Inhibition of ADE [2]: 10%

Structure (SMILES): O=C(O)CI [Iodoacetic acid]
Percent Inhibition of ADE: 0

Structure (SMILES): CC(=O)N[C@@H](CC(C)C)C(=O)N[C@@H](CC(C)C)C(=O)N[C@H](C=O)CCCNC(=N)N [Leupeptine]
Inhibition of ADE, in words: slight inhibition
Percent Inhibition of ADE [1]: 33%

Structure (SMILES): O=S(=O)(F)Cc1ccccc1 [PMSF, Phenylmethylsulfonyl fluoride]
Percent Inhibition of ADE [2]: 8%

Structure (SMILES): CC(C)CC(=O)N[C@H](C(=O)N[C@H](C(=O)N[C@@H](CC(C)C)[C@@H](O)CC(=O)N[C@@H](C)C(=O)N[C@@H](CC(C)C)[C@@H](O)CC(=O)O)C(C)C)C(C)C [Pepstatin] (Isovaleryl-VV[Sta]A[Sta]-OH)
Percent Inhibition of ADE (inhibitor 0.01 mM, 50 μM AcAPII, 1 hour, 37° C.): 0%

Structure (SMILES): O=C(O)c1cc[c]([Hg][Cl])cc1 [p-Chloromercuribenzoate]
Percent Inhibition of ADE [2]: 95%

More lines, main results first:

Percent Inhibition of ADE [1]: 0%
Structure (SMILES): CC(C)C[C@H](NC(=O)[C@H]1O[C@@H]1C(=O)O)C(=O)NCCCCN=C(N)N (relative stereo) [E64, trans-Epoxysuccinyl-L-leucylamido-(4-guanidino)butane]

Percent Inhibition of ADE [2]: 72%
Structure (SMILES): c1cnc2c(c1)ccc1cccnc12 [1,10-Phenanthroline]
Inhibition of ADE, in words: inhibited activity to a slightly lesser extent

% Inhibition At 0.1 mM (Table 10): 46%
Structure (SMILES): CC(C)C[C@H](NC(=O)[C@@H](N)CO)C(=O)N[C@@H](CCCNC(=N)N)C(=O)N[C@@H](CCCNC(=N)N)C(=O)N[C@@H](CO)C(=O)N[C@@H](CO)C(=O)N[C@H](C)C(=O)NCC(=O)N[C@H](C)C(=O)N[C@@H](CC(N)=O)C(=O)N[C@@H](CO)C(=O)N[C@@H](Cc1ccccc1)C(=O)N[C@@H](CCCNC(=N)N)C(=O)N[C@@H](Cc1ccc(O)cc1)C(N)=O [(I), Ser-Leu-Arg-Arg-Ser-Ser-DAla-Gly-DAla-Asn-Ser-Phe-Arg-Tyr-NH2] (H-SLRRSS[dA]G[dA]NSFRY-NH2)

% Inhibition At 0.1 mM (Table 10): 22%
Structure (SMILES): CC(C)C[C@H](NC(=O)[C@@H](N)CO)C(=O)N[C@@H](CCCNC(=N)N)C(=O)N[C@@H](CCCNC(=N)N)C(=O)N[C@@H](CO)C(=O)N[C@@H](CO)C(=O)N[C@H](C)C(=O)NCC(=O)N[C@H](C)C(=O)N[C@@H](CC(N)=O)C(=O)N[C@H](CO)C(=O)N[C@@H](Cc1ccccc1)C(=O)N[C@@H](CCCNC(=N)N)C(=O)N[C@@H](Cc1ccc(O)cc1)C(N)=O [(III), Ser-Leu-Arg-Arg-Ser-Ser-DAla-Gly-DAla-Asn-DSer-Phe-Arg-Tyr-NH2] (H-SLRRSS[dA]G[dA]N[dS]FRY-NH2)

IC50 (Table 10): 32.5 µM
% Inhibition At 0.1 mM (Table 10): 68%
Structure (SMILES): CC(C)C[C@H](NC(=O)[C@@H](N)CO)C(=O)N[C@@H](CCCNC(=N)N)C(=O)N[C@@H](CCCNC(=N)N)C(=O)N[C@@H](CO)C(=O)N[C@@H](CO)C(=O)N[C@H](C)C(=O)NCC(=O)N[C@H](C)C(=O)N[C@@H](CC(N)=O)C(=O)N[C@@H](CS)C(=O)N[C@@H](Cc1ccccc1)C(=O)N[C@@H](CCCNC(=N)N)C(=O)N[C@@H](Cc1ccc(O)cc1)C(N)=O [(IV), Ser-Leu-Arg-Arg-Ser-Ser-DAla-Gly-DAla-Asn-Cys-Phe-Arg-Tyr-NH2] (H-SLRRSS[dA]G[dA]NCFRY-NH2)

Inhibition of ADE, in words: slight inhibition
Percent Inhibition of ADE (inhibitor 0.2 mM, 50 μM AcAPII, 1 hour, 37° C.): 33%
Structure (SMILES): C[C@H](CS)C(=O)N1CCC[C@H]1C(=O)O [Captopril]

Percent Inhibition of ADE [1]: 10%
Structure (SMILES): CC(C)C[C@H](NC(=O)N[C@H](C(=O)N[C@@H](CCC(N)=O)C(=O)N[C@@H](C)C=O)[C@@H]1CCNC(=N)N1)C(=O)O [Elastinal]

Inhibition of ADE, in words: inhibited
Percent Inhibition of ADE [3]: 97%
ADE activity inhibited by (text summary of Table 4): ~100%
Structure (SMILES): CCN1C(=O)C=CC1=O [NEM, N-ethylmaleimide]

Inhibition of ADE, in words: not inhibited
Percent Inhibition of ADE (inhibitor 0.001 mM, 50 μM AcAPII, 1 hour, 37° C.): 0%
Structure (SMILES): CC(C)C[C@H](NP(=O)(O)O[C@@H]1O[C@@H](C)[C@H](O)[C@@H](O)[C@H]1O)C(=O)N[C@@H](Cc1c[nH]c2ccccc12)C(=O)O [Phosphoramidon]
